According to publication PMC7545998, “A snake toxin as a theranostic agent for the type 2 vasopressin receptor” (Theranostics, 2020):

Experiments:
[1] = system: rat model of hyponatremia; assay: Rat model of dDAVP-induced hyponatremia; type: in vivo
Protocol: Hyponatremia was induced in rats by continuous infusion of 10 ng/h of dDAVP and water gavage (Figure 2A). At day 0 (D0), the basal plasma sodium concentration was 145 ± 6 mM. […] In controls, plasma sodium decreased to 134 ± 1 mM and 125 ± 3 mM at D3 and D4, respectively. […] The concentration of 10 µg/kg increased plasma sodium by 12 mmol/l/24 h. This is considered as the highest acceptable correction rate in humans in order to avoid risk of osmotic demyelination. Rat weights were monitored during the experiment, each rat being its own reference.
Specific pathogen-free adult male Sprague-Dawley rats (body weight between 445 and 525 grams) were from Janvier laboratories (Le Genest St. Isle, 53941, Saint Berthevin Cedex, France) and acclimatized to the animal house conditions for 1 week. […] A stock […] solution of desmopressin (dDAVP) was prepared by dissolving 5 mg of drug in physiological saline. dDAVP was administered using subcutaneous ALZET osmotic mini-pumps (model 2002, DURECT Corporation, Cupertino, CA95014, USA) previously filled with a solution of dDAVP (pumping rate of 0.47±0.02 µL/h and mean fill volume of 233.6±4.7 µL). The dose of dDAVP (10 ng/h) was determined in preliminary experiments. Buprenorphine (Centravet, 03120 Lapalisse, France) was administered once a day at a dose of 0.02 mg/kg, s.c. from day 0 to day 3 in order to suppress post-operative pain. Water gavage (30 mL/kg) was performed 2 times per day (at 9 am and 4 pm) in the first 3 days following ALZET pump implantation, and at 9 am at day 4. Body weight was recorded every day in order to adjust for the volume of water to be administered. Rats had free access to standard rat chow, as well as water in their cages. […] On days 0, 2, 3 and 4, at 9 am, 400 µL of blood was collected from isoflurane- anesthetized rats from the tail vein with lithium heparinate (Sanofi-Aventis, Gentilly, France). Samples were centrifuged (4 °C, 2000 g, 5 min). Sodium was quantified by the Central Laboratory of the ENVT, Toulouse, France, on a VITROS 250/350/950/ 5, 1 FS, 4600 and integrated system VITROS 5600 (Ortho-Clinical Diagnostics, Buckinghamshire, United Kingdom). Multiple factor ANOVA followed by Tukey's test were used to test for significance. A P value < 0.05 was considered significant.

Sprague-Dawley rats = assay: Pharmacodynamics: diuresis and urine osmolality after single i.p. injection; type: in vivo, rat; parameters: k value of diuresis over time, first phase / k value of diuresis over time, second phase: unit not given here; settings: for maximal diuresis: between first and second h post-injection; for half-life of diuresis decrease: mono-exponential
Protocol: Diuresis was maximal between the first and second h post-injection (pi), with volumes of 29.5, 45.6, 70.9, 67.6 and 79.1 mL/kg/h for the doses of 3, 10, 30, 100 and 356 nmol/kg, respectively (Figure 3C). […] For the highest dose of 356 nmol/kg, the diuresis decreased quickly during the first 4 h and then lasted for four days.
Sprague-Dawley rats are aged between 6 and 12 weeks, between 237 g and 545 g and were use up to 3 times. […] Urine was collected at various times, and centrifuged for 30 min at 20,800 g. Urine osmolality was determined with an osmometer (Knauer, Berlin, Germany). For the pharmacokinetic experiments, a catheter was implanted in the rat jugular vein five days before the experiment. Blood samples of 400 μl were taken at various times under heparin conditions. Blood was centrifuged at 2000 g for 5 min at 4 °C and plasma was frozen at -20 °C.
Sample preparation is described in Table S1. […] The mobile phase consisted of 0.1% formic acid in water (A) and 0.1% formic acid in acetonitrile (B) running in a gradient mode from B 2% to B 100% in 3 min. […] The mass spectrometer was operated in positive ESI and MRM mode. […] A model was selected based on the extravascular (i.p.) route of administration. For the i.p. route, concentration at time zero was assumed to be zero. For each rat, the first concentration below the LLOQ was set at LLOQ/2 for calculation of PK parameters. The area under the plasma concentration versus time curve (AUC) was calculated using the linear trapezoidal method (linear interpolation). When appropriate, the terminal elimination phase of the PK profile was estimated based on the best fit (r^2) using at least the last six observed concentrations. […] The same approach was used to model diuresis over time and two k values were obtained as 0.37774 and 0.02326. Lastly, the PK/PD correlation was achieved after calculating concentrations and diuresis volumes over time based on the equation y = A0*e^-kt where A0 was the computed concentration or diuresis volume at the origin of each phase.

[2] = 356 nmol/kg i.p., bi-exponential analysis
[3] = single i.p. 1 nmol/kg, 0-24 h, n=6
[4] = single i.p. 3 nmol/kg, 0-24 h, n=6
[5] = single i.p. 3 nmol/kg, 24 - 48 h, n=6
[6] = single i.p. 10 nmol/kg, 0-24 h, n=11
[7] = single i.p. 10 nmol/kg, 24 - 48 h, n=11
[8] = single i.p. 30 nmol/kg, 0-24 h, n=11
[9] = single i.p. 30 nmol/kg, 24 - 48 h, n=11
[10] = single i.p. 100 nmol/kg, 0-24 h, n=12
[11] = single i.p. 100 nmol/kg, 24 - 48 h, n=12
[12] = single i.p. 356 nmol/kg, 0-24 h, n=17
[13] = single i.p. 356 nmol/kg, 24 - 48 h, n=17
[14] = single i.p. 356 nmol/kg, 72 h (24-h period), n=12
[15] = single i.p. 356 nmol/kg, 96 h (24-h period), n=12

Substance: mambaquaretin [MQ1]
- plasma sodium ([1]; 10 µg/kg ([…]) s.c. on days 2-4, D3): 145 ± 3 mM
- plasma sodium ([1]; 10 µg/kg ([…]) s.c. on days 2-4, D4): 148 ± 2 mM
- plasma sodium ([1]; 100 µg/kg (16 nmol/kg) s.c. on days 2-4, D3): 146 ± 2 mM
- plasma sodium ([1]; 100 µg/kg (16 nmol/kg) s.c. on days 2-4, D4): 154 ± 2 mM
- maximal diuresis (Sprague-Dawley rats; 3 nmol/kg i.p.): 0.492 mL/min/kg
- half-life of diuresis decrease (Sprague-Dawley rats; 3 nmol/kg i.p.): 3.7 h
- maximal diuresis (Sprague-Dawley rats; 10 nmol/kg i.p.): 0.76 mL/min/kg
- half-life of diuresis decrease (Sprague-Dawley rats; 10 nmol/kg i.p.): 2.4 h
- maximal diuresis (Sprague-Dawley rats; 30 nmol/kg i.p.): 1.18 mL/min/kg
- half-life of diuresis decrease (Sprague-Dawley rats; 30 nmol/kg i.p.): 2.4 h
- maximal diuresis (Sprague-Dawley rats; 100 nmol/kg i.p.): 1.13 mL/min/kg
- half-life of diuresis decrease (Sprague-Dawley rats; 100 nmol/kg i.p.): 1.2 h
- maximal diuresis (Sprague-Dawley rats; 356 nmol/kg i.p.): 1.32 mL/min/kg
- fast half-life (T1/2α) of diuresis (Sprague-Dawley rats; [2]): 1.2 h
- slow half-life (T1/2β) of diuresis (Sprague-Dawley rats; [2]): 27.3 h
- k value of diuresis over time, first phase (Sprague-Dawley rats; 356 nmol/kg i.p., modelled): 0.3777
- k value of diuresis over time, second phase (Sprague-Dawley rats; 356 nmol/kg i.p., modelled): 0.02326
- diuresis and osmolality compared to control (Sprague-Dawley rats; single 1 nmol/kg i.p.): statistically unchanged
- Diuresis Average (Sprague-Dawley rats; [3]): 0.039 mL/min/kg
- Excretion Average (Sprague-Dawley rats; [3]): 2206 µosm/h/kg
- Osmolarity Averag (Sprague-Dawley rats; [3]): 1158 mOsmol/kgH2O
- Diuresis Average (Sprague-Dawley rats; [4]): 0.0855 mL/min/kg
- Excretion Average (Sprague-Dawley rats; [4]): 2710 µosm/h/kg
- Osmolarity Averag (Sprague-Dawley rats; [4]): 503 mOsmol/kgH2O
- Diuresis Average (Sprague-Dawley rats; [5]): 0.0255 mL/min/kg
- Excretion Average (Sprague-Dawley rats; [5]): 3077 µosm/h/kg
- Osmolarity Averag (Sprague-Dawley rats; [5]): 2000 mOsmol/kgH2O
- Diuresis Average (Sprague-Dawley rats; [6]): 0.13 mL/min/kg
- Excretion Average (Sprague-Dawley rats; [6]): 2092 µosm/h/kg
- Osmolarity Averag (Sprague-Dawley rats; [6]): 273 mOsmol/kgH2O
- Diuresis Average (Sprague-Dawley rats; [7]): 0.0263 mL/min/kg
- Excretion Average (Sprague-Dawley rats; [7]): 2117 µosm/h/kg
- Osmolarity Averag (Sprague-Dawley rats; [7]): 1332 mOsmol/kgH2O
- Diuresis Average (Sprague-Dawley rats; [8]): 0.1742 mL/min/kg
- Excretion Average (Sprague-Dawley rats; [8]): 2280 µosm/h/kg
- Osmolarity Averag (Sprague-Dawley rats; [8]): 214 mOsmol/kgH2O
- Diuresis Average (Sprague-Dawley rats; [9]): 0.0375 mL/min/kg
- Excretion Average (Sprague-Dawley rats; [9]): 2064 µosm/h/kg
- Osmolarity Averag (Sprague-Dawley rats; [9]): 937 mOsmol/kgH2O
- Diuresis Average (Sprague-Dawley rats; [10]): 0.2138 mL/min/kg
- Excretion Average (Sprague-Dawley rats; [10]): 2046 µosm/h/kg
- Osmolarity Averag (Sprague-Dawley rats; [10]): 162 mOsmol/kgH2O
- Diuresis Average (Sprague-Dawley rats; [11]): 0.0457 mL/min/kg
- Excretion Average (Sprague-Dawley rats; [11]): 1930 µosm/h/kg
- Osmolarity Averag (Sprague-Dawley rats; [11]): 703 mOsmol/kgH2O
- Diuresis Average (Sprague-Dawley rats; [12]): 0.3492 mL/min/kg
- Excretion Average (Sprague-Dawley rats; [12]): 2658 µosm/h/kg
- Osmolarity Averag (Sprague-Dawley rats; [12]): 136 mOsmol/kgH2O
- Diuresis Average (Sprague-Dawley rats; [13]): 0.161 mL/min/kg
- Excretion Average (Sprague-Dawley rats; [13]): 2617 µosm/h/kg
- Osmolarity Averag (Sprague-Dawley rats; [13]): 283 mOsmol/kgH2O
- Diuresis Average (Sprague-Dawley rats; [14]): 0.1 mL/min/kg
- Excretion Average (Sprague-Dawley rats; [14]): 2617 µosm/h/kg
- Osmolarity Averag (Sprague-Dawley rats; [14]): 455 mOsmol/kgH2O
- Diuresis Average (Sprague-Dawley rats; [15]): 0.0627 mL/min/kg
- Excretion Average (Sprague-Dawley rats; [15]): 2838 µosm/h/kg
- Osmolarity Averag (Sprague-Dawley rats; [15]): 754 mOsmol/kgH2O
